Source: patent US8709811B2, “Materials and methods for synthesis of a flavor and aroma volatile in plants” (University of Florida Research Foundation, Inc., priority 2003, dated 2014)
“Also recorded” adds a separate entry of the source.

Legend:
[1] = concentration X humans' ability to detect; cited from earlier work
[2] = trained expert panel; cited from earlier work
[3] = test system: 2-phenylethanol dehydrogenase (full-length cLET2M9); type: biochemical, tomato; conditions: GST-tagged enzyme, decrease in OD340
Procedure: A full-length 2-phenylethanol dehydrogenase cDNA was cloned by 5′ RACE from tomato fruit cDNA using primer 5′-[…]-3′ (SEQ ID NO: 3). Following sequence analysis the full-length cDNA was obtained by PCR. The coding region was cloned into vector pDEST15 containing a GST tag (Invitrogen) by recombination, and transformed into E. coli strain BL21-SI (Invitrogen) for inducible protein expression. Enzyme activity of crude E. coli extracts was determined by the method of Larroy et al. (2002) using phenylacetaldehyde, cinnamaldehyde or vanillin as a substrate.
The 2-phenylethanol dehydrogenase coding region of the full-length cLET2M9 and the related cLEG71F12 were cloned in vector pDEST15 with a GST tag and transformed into E. coli BL21-SI cells for inducible expression. The production of recombinant protein in E. coli was determined by Western blotting with an anti-GST antibody.

[4] = target: LePEDH (tomato 2-phenylethanol dehydrogenase, full-length cLET2M9) (Solanum lycopersicum, UniProt A6N6K7); assay: Alcohol dehydrogenase activity of E. coli expressed His-tagged LePEDH on phenylacetaldehyde and related substrates (Km); type: biochemical; conditions: His tag
Procedure: The 2-phenylethanol dehydrogenase coding region of the full-length cLET2M9 was cloned in vector pDEST17 with a His tag and transformed into E. coli BL21-AI cells for inducible expression. Alcohol dehydrogenase activities on phenylacetaldehyde and several related substrates were determined.

LePEDH (tomato 2-phenylethanol dehydrogenase, full-length cLET2M9), sequence (A6N6K7 entry or part of it): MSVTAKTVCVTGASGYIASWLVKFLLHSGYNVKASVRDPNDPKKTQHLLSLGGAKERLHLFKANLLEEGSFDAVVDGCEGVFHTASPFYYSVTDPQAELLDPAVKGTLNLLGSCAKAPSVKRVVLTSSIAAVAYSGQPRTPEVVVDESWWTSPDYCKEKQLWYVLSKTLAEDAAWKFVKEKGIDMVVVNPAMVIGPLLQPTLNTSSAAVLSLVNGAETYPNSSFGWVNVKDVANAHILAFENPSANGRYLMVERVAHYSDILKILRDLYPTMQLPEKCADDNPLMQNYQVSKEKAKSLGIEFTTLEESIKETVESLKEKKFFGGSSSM

Row | Compound | Log odor units [1] | Odor Characteristics [2] | Alcohol dehydrogenase activity level as substrate [3] | Alcohol dehydrogenase activity level as substrate [4]
1 | CCCC/C=C/C=O [trans-2-Heptenal] | 0.7 | Green | – | –
2 | COc1cc(C=O)ccc1O [vanillin] | – | – | negligible activity | –
3 | CC(=O)CCC=C(C)C [6-Methyl-5-hepten-2-one] | 0.4 | fruity, floral | – | –
4 | C/C=C/C(=O)C1=C(C)C=CCC1(C)C [β-Damascenone] | 2.7 | Fruity | – | –
5 | O=Cc1ccccc1 [Benzaldehyde] | – | – | – | Lower activity levels
6 | CC(=O)/C=C/C1=C(C)CCCC1(C)C [β-ionone] | 2.8 | fruity/floral | – | –
7 | CC/C=C\CC=O [cis-3-Hexenal] | 3.7 | Tomato/green | – | –
8 | COC(=O)c1ccccc1O [Methyl salicylate] | 0.08 | wintergreen | – | –
9 | OCCc1ccccc1 [2-Phenylethanol] | 0.3 | Nutty | – | –
10 | CCC/C=C/C=O [trans-2-Hexenal] | 1.2 | Green | – | –
11 | O=[N+]([O-])CCc1ccccc1 [1-nitro-2-Phenylethane] | 0.9 | musty, earthy | – | –
12 | O=CCc1ccccc1 [Phenylacetaldehyde] | 0.6 | floral/alcohol | highest level of activity; also recorded: Highest activity levels | highest level of activity
13 | CC(C)CCO [3-Methylbutanol] | 0.2 | earthy, musty | – | –
14 | C=CC(=O)CC [1-Penten-3-one] | 2.7 | fruity; also recorded: floral/green | – | –
15 | O=Cc1ccccc1O [salicylaldehyde] | – | – | – | no detectable activity
16 | CC(C)Cc1nccs1 [2-Isobutylthiazole] | 1.0 | Tomato vine | – | –
17 | CCCCCC=O [Hexanal] | 2.8 | green/grassy | – | –
18 | O=C/C=C/c1ccccc1 [Cinnamaldehyde] | – | – | Lower activity levels | Lower activity levels
